Data from PubChem BioAssay (NCI).
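The compound was tested at five concentrations on cells cultured in 96-well plates, with a 48-hour exposure period. Here, GI50 denotes the concentration required for 50% inhibition of growth. TGI: total growth inhibition.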

What was measured:
Experiment in all cases: NCI-60 cell line screen, 48 h
HT29 colon = tested on: HT29 colon
SF-539 CNS = tested on: SF-539 CNS
NCI-H226 lung = tested on: NCI-H226 lung
SF-268 CNS = tested on: SF-268 CNS
A498 renal = tested on: A498 renal
T-47D breast = tested on: T-47D breast
HL-60(TB) leukemia = tested on: HL-60(TB) leukemia
MOLT-4 leukemia = tested on: MOLT-4 leukemia
NCI-H23 lung = tested on: NCI-H23 lung
OVCAR-4 ovarian = tested on: OVCAR-4 ovarian
MDA-MB-231 breast = tested on: MDA-MB-231 breast
SNB-75 CNS = tested on: SNB-75 CNS
SR leukemia = tested on: SR leukemia
EKVX NSCLC = tested on: EKVX NSCLC
NCI-H522 lung = tested on: NCI-H522 lung
MALME-3M melanoma = tested on: MALME-3M melanoma
SK-MEL-2 melanoma = tested on: SK-MEL-2 melanoma
NCI-H460 lung = tested on: NCI-H460 lung
HCT-116 colon = tested on: HCT-116 colon
DU-145 prostate = tested on: DU-145 prostate
HS 578T breast = tested on: HS 578T breast
SN12C renal = tested on: SN12C renal
SNB-19 CNS = tested on: SNB-19 CNS
UO-31 renal = tested on: UO-31 renal
UACC-62 melanoma = tested on: UACC-62 melanoma
SK-OV-3 ovarian = tested on: SK-OV-3 ovarian
CAKI-1 renal = tested on: CAKI-1 renal
MCF7 breast = tested on: MCF7 breast
COLO 205 colon = tested on: COLO 205 colon
M14 melanoma = tested on: M14 melanoma
UACC-257 melanoma = tested on: UACC-257 melanoma
PC-3 prostate = tested on: PC-3 prostate
ACHN renal = tested on: ACHN renal
BT-549 breast = tested on: BT-549 breast
RPMI-8226 leukemia = tested on: RPMI-8226 leukemia
RXF 393 renal = tested on: RXF 393 renal
K-562 leukemia = tested on: K-562 leukemia
SF-295 CNS = tested on: SF-295 CNS
OVCAR-3 ovarian = tested on: OVCAR-3 ovarian
IGROV1 ovarian = tested on: IGROV1 ovarian
A549 NSCLC = tested on: A549 NSCLC
OVCAR-8 ovarian = tested on: OVCAR-8 ovarian
HCT-15 colon = tested on: HCT-15 colon
HOP-92 NSCLC = tested on: HOP-92 NSCLC
NCI/ADR-RES ovarian = tested on: NCI/ADR-RES ovarian
U251 CNS = tested on: U251 CNS
HOP-62 NSCLC = tested on: HOP-62 NSCLC
SK-MEL-28 melanoma = tested on: SK-MEL-28 melanoma
SW-620 colon = tested on: SW-620 colon
MDA-MB-435 = tested on: MDA-MB-435
SK-MEL-5 melanoma = tested on: SK-MEL-5 melanoma
KM12 colon = tested on: KM12 colon
786-0 renal = tested on: 786-0 renal
OVCAR-5 ovarian = tested on: OVCAR-5 ovarian
HCC-2998 colon = tested on: HCC-2998 colon
LOX IMVI melanoma = tested on: LOX IMVI melanoma
TK-10 renal = tested on: TK-10 renal

## Cc1[nH]nc(C(=O)Nc2n[nH]c3ccccc23)c1[N+](=O)[O-]
HT29 colon
  GI50: > 100 µM
  TGI: > 100 µM
SF-539 CNS
  GI50: > 100 µM
  TGI: > 100 µM
NCI-H226 lung
  GI50: > 100 µM
  TGI: > 100 µM
SF-268 CNS
  GI50: > 100 µM
  TGI: > 100 µM
A498 renal
  GI50: > 76.6 µM
  TGI: > 100 µM
T-47D breast
  GI50: > 100 µM
  TGI: > 100 µM
HL-60(TB) leukemia
  GI50: > 63 µM
  TGI: > 96.1 µM
MOLT-4 leukemia
  GI50: > 62.5 µM
  TGI: 97.7 µM
NCI-H23 lung
  GI50: > 66.9 µM
  TGI: > 100 µM
OVCAR-4 ovarian
  GI50: > 100 µM
  TGI: > 100 µM
MDA-MB-231 breast
  GI50: > 100 µM
  TGI: > 100 µM
SNB-75 CNS
  GI50: 64.1 µM
  TGI: > 100 µM
SR leukemia
  TGI: > 49.3 µM
EKVX NSCLC
  GI50: > 100 µM
  TGI: > 100 µM
NCI-H522 lung
  GI50: 39.4 µM
  TGI: > 100 µM
MALME-3M melanoma
  GI50: > 100 µM
  TGI: > 100 µM
SK-MEL-2 melanoma
  GI50: > 100 µM
  TGI: > 100 µM
NCI-H460 lung
  GI50: > 85.1 µM
  TGI: > 100 µM
HCT-116 colon
  GI50: > 100 µM
  TGI: > 100 µM
DU-145 prostate
  GI50: > 79.7 µM
  TGI: > 100 µM
HS 578T breast
  GI50: > 68.7 µM
  TGI: > 100 µM
SN12C renal
  GI50: > 100 µM
  TGI: > 100 µM
SNB-19 CNS
  GI50: > 100 µM
  TGI: > 100 µM
UO-31 renal
  GI50: > 100 µM
  TGI: > 100 µM
UACC-62 melanoma
  GI50: > 93.7 µM
  TGI: > 100 µM
SK-OV-3 ovarian
  GI50: > 100 µM
  TGI: > 100 µM
CAKI-1 renal
  GI50: > 100 µM
  TGI: > 100 µM
MCF7 breast
  GI50: 53.3 µM
  TGI: > 100 µM
COLO 205 colon
  GI50: 63.4 µM
  TGI: > 100 µM
M14 melanoma
  GI50: > 96.2 µM
  TGI: > 100 µM
UACC-257 melanoma
  GI50: > 100 µM
  TGI: > 100 µM
PC-3 prostate
  GI50: > 100 µM
  TGI: > 100 µM
ACHN renal
  GI50: > 100 µM
  TGI: > 100 µM
BT-549 breast
  GI50: 26.5 µM
  TGI: > 100 µM
RPMI-8226 leukemia
  GI50: > 71.5 µM
  TGI: > 100 µM
RXF 393 renal
  GI50: > 100 µM
  TGI: > 100 µM
K-562 leukemia
  GI50: > 100 µM
  TGI: > 100 µM
SF-295 CNS
  GI50: > 100 µM
  TGI: > 100 µM
OVCAR-3 ovarian
  GI50: > 100 µM
  TGI: > 100 µM
IGROV1 ovarian
  GI50: > 100 µM
  TGI: > 100 µM
A549 NSCLC
  GI50: > 66.6 µM
  TGI: > 100 µM
OVCAR-8 ovarian
  GI50: > 100 µM
  TGI: > 100 µM
HCT-15 colon
  GI50: 33.4 µM
  TGI: > 100 µM
HOP-92 NSCLC
  GI50: > 100 µM
  TGI: > 100 µM
NCI/ADR-RES ovarian
  GI50: > 100 µM
  TGI: > 100 µM
U251 CNS
  GI50: > 100 µM
  TGI: > 100 µM
HOP-62 NSCLC
  GI50: > 100 µM
  TGI: > 100 µM
SK-MEL-28 melanoma
  GI50: > 100 µM
  TGI: > 100 µM
SW-620 colon
  GI50: > 100 µM
  TGI: > 100 µM
MDA-MB-435
  GI50: > 100 µM
  TGI: > 100 µM
SK-MEL-5 melanoma
  GI50: > 60.1 µM
  TGI: > 100 µM
KM12 colon
  GI50: > 100 µM
  TGI: > 100 µM
786-0 renal
  GI50: > 100 µM
  TGI: > 100 µM
OVCAR-5 ovarian
  GI50: > 100 µM
  TGI: > 100 µM
HCC-2998 colon
  GI50: > 100 µM
  TGI: > 100 µM
LOX IMVI melanoma
  GI50: > 100 µM
  TGI: > 100 µM
TK-10 renal
  GI50: > 100 µM
  TGI: > 100 µM
